In patent US20230117592A1 (SRI International, priority 2019, published 2023):

What was measured:
5-LOX = molecular target: T1, 5-LOX (Homo sapiens, UniProt P09917); assay: 5-LOX fluorescent assay (in vitro lipoxygenase inhibition); format: biochemical; conditions: recombinant 5-LOX cell lysate, 20 μM AA, DHR123 fluorescence; several values in a cell = repeat determinations; read-out: IC50 (μM) values for in vitro lipoxygenase inhibition, 5-LOX
T1 sequence (P09917 1-674): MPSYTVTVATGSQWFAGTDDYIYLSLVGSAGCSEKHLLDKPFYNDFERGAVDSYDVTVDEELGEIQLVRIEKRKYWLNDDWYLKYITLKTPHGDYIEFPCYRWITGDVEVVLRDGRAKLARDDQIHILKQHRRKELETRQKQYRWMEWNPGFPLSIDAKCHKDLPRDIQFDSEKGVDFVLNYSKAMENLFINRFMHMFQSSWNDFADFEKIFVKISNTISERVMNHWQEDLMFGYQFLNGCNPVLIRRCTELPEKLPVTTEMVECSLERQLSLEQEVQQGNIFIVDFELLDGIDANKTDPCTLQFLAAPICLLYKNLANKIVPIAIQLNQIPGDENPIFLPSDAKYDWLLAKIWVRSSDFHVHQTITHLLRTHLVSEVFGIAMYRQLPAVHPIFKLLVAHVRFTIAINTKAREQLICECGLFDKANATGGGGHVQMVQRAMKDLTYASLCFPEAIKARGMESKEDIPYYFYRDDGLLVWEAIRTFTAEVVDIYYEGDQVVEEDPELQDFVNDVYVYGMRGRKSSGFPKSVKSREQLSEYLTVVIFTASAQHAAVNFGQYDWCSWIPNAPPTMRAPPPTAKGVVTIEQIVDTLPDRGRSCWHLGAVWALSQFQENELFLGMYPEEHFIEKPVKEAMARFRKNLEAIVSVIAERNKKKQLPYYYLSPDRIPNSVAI
Method in brief: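 Recombinant human 5-LOX cell lysate pre-incubated 15 min with inhibitor in 50 mM Tris pH 7.5, 0.1 mM EDTA, 0.3 mM CaCl2. Reaction started with 20 μM arachidonic acid plus 100 μM ATP, with 1 μM DHR123 as fluorescent probe. IC50 from percent inhibition per dose via 4-parameter logistic or sigmoidal dose-response fit.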

12-LOX = molecular target: T2, 12-LOX (Homo sapiens, UniProt P18054); assay: 12-LOX fluorescent assay (in vitro lipoxygenase inhibition); format: biochemical; conditions: 100 nM recombinant 12-LOX, 20 μM AA, DHR123 fluorescence; several values in a cell = repeat determinations; read-out: IC50 (μM) values for in vitro lipoxygenase inhibition, 12-LOX
T2 sequence (P18054 1-663): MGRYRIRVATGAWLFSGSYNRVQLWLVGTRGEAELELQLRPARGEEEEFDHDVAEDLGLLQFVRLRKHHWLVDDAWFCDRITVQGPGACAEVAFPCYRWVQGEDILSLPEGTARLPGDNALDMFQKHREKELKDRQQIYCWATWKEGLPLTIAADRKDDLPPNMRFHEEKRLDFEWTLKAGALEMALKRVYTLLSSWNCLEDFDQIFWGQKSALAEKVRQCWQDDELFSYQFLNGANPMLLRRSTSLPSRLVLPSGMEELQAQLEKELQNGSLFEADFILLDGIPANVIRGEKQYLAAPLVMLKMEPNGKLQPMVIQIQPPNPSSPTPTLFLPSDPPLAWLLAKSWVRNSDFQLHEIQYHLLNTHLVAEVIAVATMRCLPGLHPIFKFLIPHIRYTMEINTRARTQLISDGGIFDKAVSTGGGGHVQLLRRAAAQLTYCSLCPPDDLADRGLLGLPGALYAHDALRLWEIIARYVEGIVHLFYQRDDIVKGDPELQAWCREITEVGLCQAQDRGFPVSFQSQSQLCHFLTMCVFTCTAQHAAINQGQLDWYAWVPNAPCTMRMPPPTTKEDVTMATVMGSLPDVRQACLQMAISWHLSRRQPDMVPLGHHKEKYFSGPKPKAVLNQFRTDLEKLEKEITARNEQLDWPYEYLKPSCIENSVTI
Method in brief: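 Fluorescent assay in 50 mM Tris pH 7.5, 0.05% Tween-20, with 100 nM recombinant 12-LOX preincubated 15 min with inhibitor. Reaction was started with 20 μM arachidonic acid substrate and 1 μM DHR123. Percent inhibition per dose was fitted by 4-parameter logistic or sigmoidal dose-response for IC50.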

In the case of `Cc1cc(Nc2ccc(Cl)c(F)c2)ccc1NCC1(Cn2ccnc2)COC1` [SS20308-0328-01, N^1-((3-((1H-imidazol-1-yl)methyl)oxetan-3-yl)methyl)-N^4-(4-chloro-3-fluorophenyl)-2-methylbenzene-1,4-diamine], the IC50 (5-LOX) is reported as 0.04 µM and the IC50 (12-LOX) is reported as 0.03 µM.
